# According to PubChem BioAssay AID2060496 (Molecular Pharmacology Branch, DTP, NCI, 2025):
# System: 276233-004-R-J1-PDC complex spheroid viability
# Test: Anticancer human tumor 276233-004-R-J1-PDC patient-derived colon adenocarcinoma cell line growth inhibition [GQUAD]
# Conditions: for IC50: curve of first compound; for viability, T/C: stronger effect = lower value
# Outline: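 Viability of tumor cells grown as complex spheroids with endothelial and stromal cells, exposed to drug combinations. Top concentration at or near clinical Cmax (else 10 microM), diluted in half-log increments.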
# [1] = second compound 0.0316 µM, first compound 0.000999 µM
# [2] = second compound 0.0316 µM, first compound 0.00316 µM
# [3] = second compound 0.0316 µM, first compound 0.00999 µM
# [4] = second compound 0.0316 µM, first compound 0.0316 µM
# [5] = second compound 0.0316 µM, first compound 0.0999 µM
# [6] = second compound 0.0316 µM, first compound 0.316 µM
# [7] = second compound 0.1 µM, first compound 0.000999 µM
# [8] = second compound 0.1 µM, first compound 0.00316 µM
# [9] = second compound 0.1 µM, first compound 0.00999 µM
# [10] = second compound 0.1 µM, first compound 0.0316 µM
# [11] = second compound 0.1 µM, first compound 0.0999 µM
# [12] = second compound 0.1 µM, first compound 0.316 µM
# [13] = second compound 0.316 µM, first compound 0.000999 µM
# [14] = second compound 0.316 µM, first compound 0.00316 µM
# [15] = second compound 0.316 µM, first compound 0.00999 µM
# [16] = second compound 0.316 µM, first compound 0.0316 µM
# [17] = second compound 0.316 µM, first compound 0.0999 µM
# [18] = second compound 0.316 µM, first compound 0.316 µM
# [19] = second compound 1 µM, first compound 0.000999 µM
# [20] = second compound 1 µM, first compound 0.00316 µM
# [21] = second compound 1 µM, first compound 0.00999 µM
# [22] = second compound 1 µM, first compound 0.0316 µM
# [23] = second compound 1 µM, first compound 0.0999 µM
# [24] = second compound 1 µM, first compound 0.316 µM
# [25] = second compound 3.16 µM, first compound 0.000999 µM
# [26] = second compound 3.16 µM, first compound 0.00316 µM
# [27] = second compound 3.16 µM, first compound 0.00999 µM
# [28] = second compound 3.16 µM, first compound 0.0316 µM
# [29] = second compound 3.16 µM, first compound 0.0999 µM
# [30] = second compound 3.16 µM, first compound 0.316 µM
# [31] = second compound 10 µM, first compound 0.000999 µM
# [32] = second compound 10 µM, first compound 0.00316 µM
# [33] = second compound 10 µM, first compound 0.00999 µM
# [34] = second compound 10 µM, first compound 0.0316 µM
# [35] = second compound 10 µM, first compound 0.0999 µM
# [36] = second compound 10 µM, first compound 0.316 µM
# 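Also: spheroids exposed to drugs for seven days.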
# 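For viability, T/C in this document: 100% = DMSO vehicle control viability.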
compound,measurement,setting,value
CC[C@@]1(O)C(=O)OCc2c1cc1n(c2=O)Cc2cc3c(CN(C)C)c(O)ccc3nc2-1 + Cc1cnc(CNC(=O)c2c(=O)c3ccc(N4CCCN(C)CC4)nc3n3c2sc2ccccc23)cn1,IC50,second compound 0.0316 µM,> 316 nM
same,IC50,second compound 0.1 µM,> 316 nM
same,IC50,second compound 0.316 µM,> 316 nM
same,IC50,second compound 1 µM,> 316 nM
same,IC50,second compound 3.16 µM,> 316 nM
same,IC50,second compound 10 µM,> 316 nM
same,"viability, T/C",[1],88.1%
same,"viability, T/C",[2],94.5%
same,"viability, T/C",[3],87.9%
same,"viability, T/C",[4],80%
same,"viability, T/C",[5],98.7%
same,"viability, T/C",[6],82.5%
same,"viability, T/C",[7],93.3%
same,"viability, T/C",[8],101%
same,"viability, T/C",[9],107%
same,"viability, T/C",[10],83.7%
same,"viability, T/C",[11],87%
same,"viability, T/C",[12],76%
same,"viability, T/C",[13],83.9%
same,"viability, T/C",[14],90.8%
same,"viability, T/C",[15],106%
same,"viability, T/C",[16],84.4%
same,"viability, T/C",[17],87.7%
same,"viability, T/C",[18],92.7%
same,"viability, T/C",[19],81%
same,"viability, T/C",[20],93.9%
same,"viability, T/C",[21],87.1%
same,"viability, T/C",[22],80.5%
same,"viability, T/C",[23],88.2%
same,"viability, T/C",[24],107%
same,"viability, T/C",[25],81.9%
same,"viability, T/C",[26],84%
same,"viability, T/C",[27],80.6%
same,"viability, T/C",[28],87.2%
same,"viability, T/C",[29],82.3%
same,"viability, T/C",[30],80.8%
same,"viability, T/C",[31],73.2%
same,"viability, T/C",[32],67.9%
same,"viability, T/C",[33],70.2%
same,"viability, T/C",[34],83.6%
same,"viability, T/C",[35],70%
same,"viability, T/C",[36],89.6%
Cc1cccc(N(C)C(=O)C2C(O)CCN2c2nc(C)cc(C(F)(F)F)c2C#N)c1 (stereo unspecified) + Cc1cnc(CNC(=O)c2c(=O)c3ccc(N4CCCN(C)CC4)nc3n3c2sc2ccccc23)cn1,IC50,second compound 0.0316 µM,> 10000 nM
same,IC50,second compound 0.1 µM,> 10000 nM
same,IC50,second compound 0.316 µM,> 10000 nM
same,IC50,second compound 1 µM,> 10000 nM
same,IC50,second compound 3.16 µM,> 10000 nM
same,IC50,second compound 10 µM,> 10000 nM
same,"viability, T/C",[4],89.8%
same,"viability, T/C","second compound 0.0316 µM, first compound 0.1 µM",75.8%
same,"viability, T/C",[6],90.8%
same,"viability, T/C","second compound 0.0316 µM, first compound 1 µM",84.7%
same,"viability, T/C","second compound 0.0316 µM, first compound 3.16 µM",98.8%
same,"viability, T/C","second compound 0.0316 µM, first compound 10 µM",92.8%
same,"viability, T/C",[10],75.4%
same,"viability, T/C","second compound 0.1 µM, first compound 0.1 µM",78.2%
same,"viability, T/C",[12],80.1%
same,"viability, T/C","second compound 0.1 µM, first compound 1 µM",88.6%
same,"viability, T/C","second compound 0.1 µM, first compound 3.16 µM",80.2%
same,"viability, T/C","second compound 0.1 µM, first compound 10 µM",82.5%
same,"viability, T/C",[16],77.2%
same,"viability, T/C","second compound 0.316 µM, first compound 0.1 µM",72.1%
same,"viability, T/C",[18],81.9%
same,"viability, T/C","second compound 0.316 µM, first compound 1 µM",76.4%
same,"viability, T/C","second compound 0.316 µM, first compound 3.16 µM",86.4%
same,"viability, T/C","second compound 0.316 µM, first compound 10 µM",84.8%
same,"viability, T/C",[22],73.5%
same,"viability, T/C","second compound 1 µM, first compound 0.1 µM",79.1%
same,"viability, T/C",[24],85.6%
same,"viability, T/C","second compound 1 µM, first compound 1 µM",79.5%
same,"viability, T/C","second compound 1 µM, first compound 3.16 µM",77.6%
same,"viability, T/C","second compound 1 µM, first compound 10 µM",87.4%
same,"viability, T/C",[28],65.7%
same,"viability, T/C","second compound 3.16 µM, first compound 0.1 µM",69.8%
same,"viability, T/C",[30],70%
same,"viability, T/C","second compound 3.16 µM, first compound 1 µM",56.6%
same,"viability, T/C","second compound 3.16 µM, first compound 3.16 µM",79%
same,"viability, T/C","second compound 3.16 µM, first compound 10 µM",71%
same,"viability, T/C",[34],69.9%
same,"viability, T/C","second compound 10 µM, first compound 0.1 µM",63.3%
same,"viability, T/C",[36],73.9%
same,"viability, T/C","second compound 10 µM, first compound 1 µM",69%
same,"viability, T/C","second compound 10 µM, first compound 3.16 µM",66.5%
same,"viability, T/C","second compound 10 µM, first compound 10 µM",79.3%
CC[C@@]1(O)C(=O)OCc2c1cc1n(c2=O)Cc2cc3c(CN(C)C)c(O)ccc3nc2-1 + CN(C)c1ccc(Nc2c3ccc(NC(=O)CCN4CCCC4)cc3nc3cc(NC(=O)CCN4CCCC4)ccc23)cc1,IC50,second compound 0.0316 µM,> 316 nM
same,IC50,second compound 0.1 µM,> 316 nM
same,IC50,second compound 0.316 µM,> 316 nM
same,IC50,second compound 1 µM,> 316 nM
same,IC50,second compound 3.16 µM,93 nM
same,IC50,second compound 10 µM,88.1 nM
same,"viability, T/C",[1],89.7%
same,"viability, T/C",[2],110%
same,"viability, T/C",[3],91.8%
same,"viability, T/C",[4],103%
same,"viability, T/C",[5],95.5%
same,"viability, T/C",[6],91.2%
same,"viability, T/C",[7],84.2%
same,"viability, T/C",[8],87.7%
same,"viability, T/C",[9],84.9%
same,"viability, T/C",[10],112%
same,"viability, T/C",[11],86.1%
same,"viability, T/C",[12],85.4%
same,"viability, T/C",[13],68.2%
same,"viability, T/C",[14],84.2%
same,"viability, T/C",[15],66.5%
same,"viability, T/C",[16],58.5%
same,"viability, T/C",[17],64.8%
same,"viability, T/C",[18],82%
same,"viability, T/C",[19],62.6%
same,"viability, T/C",[20],56.4%
same,"viability, T/C",[21],66.7%
same,"viability, T/C",[22],51.6%
same,"viability, T/C",[23],77.5%
same,"viability, T/C",[24],57.5%
same,"viability, T/C",[25],64.1%
same,"viability, T/C",[26],61.3%
same,"viability, T/C",[27],56.2%
same,"viability, T/C",[28],50%
same,"viability, T/C",[29],52.5%
same,"viability, T/C",[30],46.8%
same,"viability, T/C",[31],58%
same,"viability, T/C",[32],58.5%
same,"viability, T/C",[33],46.7%
same,"viability, T/C",[34],66.1%
same,"viability, T/C",[35],43.8%
same,"viability, T/C",[36],39.8%
